Data reported in publication PMC7316778 (Nature Communications, 2020).
“And” between values parts separate entries of the source, which are not always exact repeats. Equal values may be shown once. Read-outs that look alike come from different tables or passages of the source.

Key:
WT HL-60 cells = assay: CD11b surface expression, PMA-induced macrophage differentiation; format: cell-based, human; conditions: Figure 6d
FES^S700C HL-60 cells = assay: Proliferation ratio during neutrophil differentiation; format: cell-based, human; conditions: 100 nM; Supplementary Figure 12d; individual replicates; listed as WEL028
BLK = BLK (Homo sapiens, UniProt P51451); assay: SelectScreen kinase assay
Method: (§1) Selectivity profiling assays were performed by the Invitrogen SelectScreen™ Services. […] The concentration of ATP was selected to be equal to the KM, unless indicated otherwise.

CAMKK2 (CaMKK beta) = CAMKK2 (CaMKK beta) (Homo sapiens, UniProt Q96RR4); assay: SelectScreen kinase assay
Method: as §1

CDK9/cyclin T1 = CDK9/cyclin T1 (Homo sapiens, UniProt P50750); assay: SelectScreen kinase assay
Method: as §1

EPHA4 = EPHA4 (Homo sapiens, UniProt P54764); assay: SelectScreen kinase assay
Method: as §1

EPHB2 = biological target: T1, EPHB2 (Homo sapiens, UniProt P29323); assay: SelectScreen kinase assay; conditions: for Inhibition at 1 µM (%): EPHB2, ZLYTE, ATP Km app
T1 sequence (P29323 19-1055): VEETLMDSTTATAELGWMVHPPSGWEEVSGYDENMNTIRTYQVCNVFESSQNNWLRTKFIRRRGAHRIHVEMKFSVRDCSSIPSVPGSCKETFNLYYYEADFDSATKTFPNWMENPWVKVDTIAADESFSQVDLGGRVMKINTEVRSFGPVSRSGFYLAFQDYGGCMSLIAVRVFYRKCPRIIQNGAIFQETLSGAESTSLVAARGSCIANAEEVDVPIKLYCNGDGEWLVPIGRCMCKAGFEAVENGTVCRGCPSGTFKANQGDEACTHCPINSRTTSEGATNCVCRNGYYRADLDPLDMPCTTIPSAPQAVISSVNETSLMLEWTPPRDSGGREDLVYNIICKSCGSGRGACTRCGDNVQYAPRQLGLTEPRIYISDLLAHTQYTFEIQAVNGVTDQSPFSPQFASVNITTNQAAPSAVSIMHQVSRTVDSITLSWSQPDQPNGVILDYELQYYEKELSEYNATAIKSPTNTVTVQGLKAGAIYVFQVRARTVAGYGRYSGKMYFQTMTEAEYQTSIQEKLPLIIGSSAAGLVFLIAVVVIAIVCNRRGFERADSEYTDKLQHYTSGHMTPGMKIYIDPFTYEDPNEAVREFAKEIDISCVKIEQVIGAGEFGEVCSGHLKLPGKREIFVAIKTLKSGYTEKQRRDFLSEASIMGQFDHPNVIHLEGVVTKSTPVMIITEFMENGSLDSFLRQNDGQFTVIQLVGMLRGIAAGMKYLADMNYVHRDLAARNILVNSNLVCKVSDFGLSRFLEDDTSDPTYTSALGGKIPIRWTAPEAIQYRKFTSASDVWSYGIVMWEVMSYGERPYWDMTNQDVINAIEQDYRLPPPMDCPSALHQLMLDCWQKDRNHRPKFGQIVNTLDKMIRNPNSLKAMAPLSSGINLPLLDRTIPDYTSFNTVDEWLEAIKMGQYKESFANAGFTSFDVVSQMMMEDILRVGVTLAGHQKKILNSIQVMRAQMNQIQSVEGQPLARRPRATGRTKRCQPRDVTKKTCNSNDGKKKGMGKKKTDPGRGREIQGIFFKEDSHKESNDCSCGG
Method: as §1

EPHB3 = biological target: T2, EPHB3 (Homo sapiens, UniProt P54753); assay: SelectScreen kinase assay; conditions: for Inhibition at 1 µM (%): EPHB3, ZLYTE, ATP Km app
T2 sequence (P54753 34-998): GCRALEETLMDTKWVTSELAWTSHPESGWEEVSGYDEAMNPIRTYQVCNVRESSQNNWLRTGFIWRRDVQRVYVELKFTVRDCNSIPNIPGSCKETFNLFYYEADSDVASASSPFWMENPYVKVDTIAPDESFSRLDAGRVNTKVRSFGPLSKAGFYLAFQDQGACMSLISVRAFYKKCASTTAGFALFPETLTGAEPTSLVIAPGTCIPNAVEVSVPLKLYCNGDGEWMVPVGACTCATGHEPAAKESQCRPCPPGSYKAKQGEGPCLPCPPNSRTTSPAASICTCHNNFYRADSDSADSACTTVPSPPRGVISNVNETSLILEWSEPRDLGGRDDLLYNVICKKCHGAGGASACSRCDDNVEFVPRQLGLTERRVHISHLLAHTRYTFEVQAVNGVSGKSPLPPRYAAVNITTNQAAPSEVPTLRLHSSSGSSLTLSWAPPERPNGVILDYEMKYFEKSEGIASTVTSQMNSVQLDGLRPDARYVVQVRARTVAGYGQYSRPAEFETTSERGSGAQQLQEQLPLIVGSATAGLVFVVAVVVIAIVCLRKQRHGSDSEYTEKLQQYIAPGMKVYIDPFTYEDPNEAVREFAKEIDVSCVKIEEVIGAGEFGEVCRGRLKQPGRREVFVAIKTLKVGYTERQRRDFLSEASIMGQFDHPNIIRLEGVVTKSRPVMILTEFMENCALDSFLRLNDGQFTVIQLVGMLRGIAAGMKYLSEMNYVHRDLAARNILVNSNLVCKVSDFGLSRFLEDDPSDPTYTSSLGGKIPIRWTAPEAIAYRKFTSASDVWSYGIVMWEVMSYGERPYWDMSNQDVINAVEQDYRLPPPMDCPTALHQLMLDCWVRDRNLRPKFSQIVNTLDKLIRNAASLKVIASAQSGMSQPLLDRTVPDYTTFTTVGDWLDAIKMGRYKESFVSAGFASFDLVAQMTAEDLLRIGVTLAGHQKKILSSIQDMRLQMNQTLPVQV
Method: as §1

PI4K2A (PI4K2 alpha) = PI4K2A (PI4K2 alpha) (Homo sapiens, UniProt Q9BTU6); assay: SelectScreen kinase assay
Method: as §1

PLK1 = PLK1 (Homo sapiens, UniProt P53350); assay: SelectScreen kinase assay
Method: as §1

RPS6KA2 (RSK3) = RPS6KA2 (RSK3) (Homo sapiens, UniProt Q15349); assay: SelectScreen kinase assay; conditions: 1 h, 1 μM WEL028, 1 h preincubation
Method: as §1

SGK2 = SGK2 (Homo sapiens, UniProt Q9HBY8); assay: SelectScreen kinase assay
Method: as §1

[1] = 1 h, 1 μM WEL028, 1 h preincubation

Sequence of BLK (P51451 whole entry): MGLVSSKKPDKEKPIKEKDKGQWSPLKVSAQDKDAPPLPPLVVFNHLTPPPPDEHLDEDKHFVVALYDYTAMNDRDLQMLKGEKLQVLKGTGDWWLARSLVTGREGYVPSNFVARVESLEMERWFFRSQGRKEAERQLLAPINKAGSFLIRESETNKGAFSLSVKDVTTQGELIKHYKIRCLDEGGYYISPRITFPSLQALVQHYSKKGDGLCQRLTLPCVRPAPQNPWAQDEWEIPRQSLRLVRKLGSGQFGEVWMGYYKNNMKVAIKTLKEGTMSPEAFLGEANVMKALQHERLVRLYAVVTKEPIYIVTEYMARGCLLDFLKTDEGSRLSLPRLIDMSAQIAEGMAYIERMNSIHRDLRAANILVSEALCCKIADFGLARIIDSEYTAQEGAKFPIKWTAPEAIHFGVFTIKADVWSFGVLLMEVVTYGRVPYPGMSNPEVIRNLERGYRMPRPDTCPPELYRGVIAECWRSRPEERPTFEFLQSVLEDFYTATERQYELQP
Sequence of SGK2 (Q9HBY8 whole entry): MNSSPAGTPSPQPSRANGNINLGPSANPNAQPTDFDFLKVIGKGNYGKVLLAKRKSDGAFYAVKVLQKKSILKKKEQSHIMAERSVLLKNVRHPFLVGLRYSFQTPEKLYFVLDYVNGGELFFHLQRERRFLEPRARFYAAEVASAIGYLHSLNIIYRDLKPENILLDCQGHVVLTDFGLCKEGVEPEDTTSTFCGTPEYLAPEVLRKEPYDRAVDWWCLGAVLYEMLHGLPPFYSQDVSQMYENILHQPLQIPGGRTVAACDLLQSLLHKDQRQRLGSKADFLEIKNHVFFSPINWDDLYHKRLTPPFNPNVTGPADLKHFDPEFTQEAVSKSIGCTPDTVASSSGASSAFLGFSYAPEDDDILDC
Sequence of PLK1 (P53350 whole entry): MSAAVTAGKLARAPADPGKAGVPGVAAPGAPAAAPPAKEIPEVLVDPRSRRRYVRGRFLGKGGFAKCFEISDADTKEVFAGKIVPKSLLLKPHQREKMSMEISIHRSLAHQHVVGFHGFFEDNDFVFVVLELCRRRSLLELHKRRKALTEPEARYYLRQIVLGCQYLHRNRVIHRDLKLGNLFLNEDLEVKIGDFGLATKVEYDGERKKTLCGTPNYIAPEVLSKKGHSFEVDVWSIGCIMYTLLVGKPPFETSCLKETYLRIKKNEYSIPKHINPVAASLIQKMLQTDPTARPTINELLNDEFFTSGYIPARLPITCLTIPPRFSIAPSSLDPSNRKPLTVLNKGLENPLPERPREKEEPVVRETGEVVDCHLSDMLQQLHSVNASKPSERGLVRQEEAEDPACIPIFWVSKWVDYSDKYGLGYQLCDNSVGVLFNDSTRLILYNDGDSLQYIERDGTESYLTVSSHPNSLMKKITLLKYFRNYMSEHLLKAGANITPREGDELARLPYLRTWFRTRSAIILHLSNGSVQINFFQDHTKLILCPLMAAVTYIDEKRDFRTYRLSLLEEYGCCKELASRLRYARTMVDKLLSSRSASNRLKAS
Sequence of CDK9/cyclin T1 (P50750 whole entry): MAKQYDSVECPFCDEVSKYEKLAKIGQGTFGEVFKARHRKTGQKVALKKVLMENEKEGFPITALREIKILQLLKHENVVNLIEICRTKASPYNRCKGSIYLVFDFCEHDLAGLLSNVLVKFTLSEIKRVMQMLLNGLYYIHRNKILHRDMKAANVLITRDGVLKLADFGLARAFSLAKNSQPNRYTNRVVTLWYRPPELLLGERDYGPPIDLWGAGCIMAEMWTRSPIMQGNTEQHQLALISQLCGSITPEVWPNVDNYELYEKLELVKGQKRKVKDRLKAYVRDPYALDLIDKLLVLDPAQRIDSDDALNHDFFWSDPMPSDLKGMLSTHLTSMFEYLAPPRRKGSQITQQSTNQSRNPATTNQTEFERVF
Sequence of CDK9/cyclin T1 (O60563 whole entry partner): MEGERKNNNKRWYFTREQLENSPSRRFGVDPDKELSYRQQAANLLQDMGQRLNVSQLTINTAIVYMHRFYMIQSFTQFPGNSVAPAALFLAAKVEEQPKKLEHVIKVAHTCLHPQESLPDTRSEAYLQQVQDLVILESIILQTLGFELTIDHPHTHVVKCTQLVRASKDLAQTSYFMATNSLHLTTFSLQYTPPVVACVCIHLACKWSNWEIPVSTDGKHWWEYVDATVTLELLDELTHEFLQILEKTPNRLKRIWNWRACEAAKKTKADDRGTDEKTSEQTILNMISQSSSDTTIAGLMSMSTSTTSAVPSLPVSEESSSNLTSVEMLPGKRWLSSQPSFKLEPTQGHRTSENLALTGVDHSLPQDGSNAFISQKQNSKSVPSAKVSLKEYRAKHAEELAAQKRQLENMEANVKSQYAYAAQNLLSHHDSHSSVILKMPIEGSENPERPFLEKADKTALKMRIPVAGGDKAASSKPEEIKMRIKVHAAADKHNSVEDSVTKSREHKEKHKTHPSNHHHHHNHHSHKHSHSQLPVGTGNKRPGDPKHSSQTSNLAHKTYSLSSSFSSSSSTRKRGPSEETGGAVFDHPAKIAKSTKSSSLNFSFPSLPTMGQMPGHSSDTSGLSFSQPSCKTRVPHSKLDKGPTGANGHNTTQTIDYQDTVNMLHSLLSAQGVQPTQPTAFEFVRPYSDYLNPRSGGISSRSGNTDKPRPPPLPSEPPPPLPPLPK
Sequence of EPHA4 (P54764 20-986): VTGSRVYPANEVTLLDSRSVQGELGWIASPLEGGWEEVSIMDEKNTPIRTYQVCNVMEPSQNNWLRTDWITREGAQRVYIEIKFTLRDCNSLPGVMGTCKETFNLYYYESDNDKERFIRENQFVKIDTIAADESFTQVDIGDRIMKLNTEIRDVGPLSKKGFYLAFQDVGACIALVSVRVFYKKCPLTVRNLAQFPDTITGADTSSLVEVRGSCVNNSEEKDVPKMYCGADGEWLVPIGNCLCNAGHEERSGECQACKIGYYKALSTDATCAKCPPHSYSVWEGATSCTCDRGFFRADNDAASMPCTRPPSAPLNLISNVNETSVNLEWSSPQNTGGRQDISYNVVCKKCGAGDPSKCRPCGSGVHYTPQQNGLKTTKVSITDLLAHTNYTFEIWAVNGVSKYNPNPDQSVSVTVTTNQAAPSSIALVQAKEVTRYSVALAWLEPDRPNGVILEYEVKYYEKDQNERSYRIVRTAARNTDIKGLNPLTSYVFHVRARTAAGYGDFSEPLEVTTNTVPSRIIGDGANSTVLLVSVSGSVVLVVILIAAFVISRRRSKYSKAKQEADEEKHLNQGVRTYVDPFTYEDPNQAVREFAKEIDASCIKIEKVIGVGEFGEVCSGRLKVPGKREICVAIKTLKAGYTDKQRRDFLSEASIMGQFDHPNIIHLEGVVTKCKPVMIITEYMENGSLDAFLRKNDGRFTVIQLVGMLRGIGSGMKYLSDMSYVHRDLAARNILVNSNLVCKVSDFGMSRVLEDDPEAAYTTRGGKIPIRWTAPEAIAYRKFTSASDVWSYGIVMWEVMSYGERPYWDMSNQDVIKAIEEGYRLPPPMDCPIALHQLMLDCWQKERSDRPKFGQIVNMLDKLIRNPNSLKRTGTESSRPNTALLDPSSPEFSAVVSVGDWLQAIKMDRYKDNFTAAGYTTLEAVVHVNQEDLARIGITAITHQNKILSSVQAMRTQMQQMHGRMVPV
Sequence of PI4K2A (PI4K2 alpha) (Q9BTU6 whole entry): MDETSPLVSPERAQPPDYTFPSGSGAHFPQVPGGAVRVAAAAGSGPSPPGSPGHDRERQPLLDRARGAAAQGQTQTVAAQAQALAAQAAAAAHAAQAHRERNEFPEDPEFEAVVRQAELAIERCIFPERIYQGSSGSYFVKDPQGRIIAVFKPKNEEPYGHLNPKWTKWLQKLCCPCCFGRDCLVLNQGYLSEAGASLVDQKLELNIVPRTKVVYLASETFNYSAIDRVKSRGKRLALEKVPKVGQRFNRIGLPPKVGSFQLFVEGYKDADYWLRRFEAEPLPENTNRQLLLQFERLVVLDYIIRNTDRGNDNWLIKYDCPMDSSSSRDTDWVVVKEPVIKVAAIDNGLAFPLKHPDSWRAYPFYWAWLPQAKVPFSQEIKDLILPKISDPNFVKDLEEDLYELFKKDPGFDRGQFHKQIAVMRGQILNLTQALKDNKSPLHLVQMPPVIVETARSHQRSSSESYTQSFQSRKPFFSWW
Sequence of CAMKK2 (CaMKK beta) (Q96RR4 whole entry): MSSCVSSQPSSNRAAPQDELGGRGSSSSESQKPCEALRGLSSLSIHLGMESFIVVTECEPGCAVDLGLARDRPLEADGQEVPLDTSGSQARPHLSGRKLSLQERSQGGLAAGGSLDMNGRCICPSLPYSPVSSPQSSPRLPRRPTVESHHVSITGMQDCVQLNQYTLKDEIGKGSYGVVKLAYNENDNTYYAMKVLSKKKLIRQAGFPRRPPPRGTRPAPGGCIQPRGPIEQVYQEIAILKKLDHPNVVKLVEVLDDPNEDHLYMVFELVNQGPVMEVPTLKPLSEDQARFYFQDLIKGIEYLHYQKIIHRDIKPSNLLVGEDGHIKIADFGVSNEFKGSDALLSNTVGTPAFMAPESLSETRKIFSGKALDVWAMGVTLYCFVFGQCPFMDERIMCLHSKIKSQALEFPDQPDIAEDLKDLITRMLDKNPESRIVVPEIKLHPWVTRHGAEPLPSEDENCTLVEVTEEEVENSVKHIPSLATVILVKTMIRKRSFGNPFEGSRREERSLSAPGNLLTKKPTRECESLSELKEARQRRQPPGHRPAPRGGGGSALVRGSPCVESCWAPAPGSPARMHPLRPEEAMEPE

In the case of `C#CCOc1ccc(Nc2ncc(Cl)c(Nc3ccccc3NC(=O)C=C)n2)c(OC)c1` [Compound 6], the “CD11b-positive cells (%)” value (WT HL-60 cells; WEL028 100 nM) is reported as 79.481% and 79.680% and 76.989%, the “CD11b-positive cells (%)” value (WT HL-60 cells; WEL028 1 µM) is reported as 1.972% and 1.548% and 2.205% and the Proliferation ratio (FES^S700C HL-60 cells) is reported as 1.625 and 1.925 and 1.9. For the same molecule, the inhibition at 1 µM (BLK; [1]) was 0%, the “Inhibition at 1 µM (%)” value (BLK; BLK, 1 µM, ZLYTE, ATP Km app, listed as WEL028, 1 µM) was 4% and -5% and the inhibition at 1 µM (CAMKK2 (CaMKK beta); 1 h) was 23%. For the same molecule, the inhibition at 1 µM (CAMKK2 (CaMKK beta); read-out: Inhibition at 1 µM (%)) was 23%, the inhibition at 1 µM (CDK9/cyclin T1; [1]) was 16% and the “Inhibition at 1 µM (%)” value (CDK9/cyclin T1; CDK9/cyclin T1, 1 µM, Adapta, ATP Km app, listed as WEL028, 1 µM) was 12%. The inhibition at 1 µM (CDK9/cyclin T1; read-out: Inhibition at 1 µM (%), CDK9/cyclin T1, 1 µM, Adapta, ATP Km app) was 20%, the inhibition at 1 µM (EPHA4; [1]) was 5% and the “Inhibition at 1 µM (%)” value (EPHA4; EPHA4, 1 µM, ZLYTE, ATP Km app, listed as WEL028, 1 µM) was 4%. The inhibition at 1 µM (EPHA4; read-out: Inhibition at 1 µM (%), EPHA4, 1 µM, ZLYTE, ATP Km app) was 5%, the “Inhibition (%)” value (EPHB2; 1 μM WEL028, 1 h preincubation) was 4% and the “Inhibition at 1 µM (%)” value (EPHB2) was 2%. For the same molecule, the “Inhibition at 1 µM (%)” value (EPHB2; listed as WEL028, 1 µM) was 5%, the inhibition at 1 µM (EPHB3; [1]) was 1% and the “Inhibition at 1 µM (%)” value (EPHB3) was 2%. The “Inhibition at 1 µM (%)” value (EPHB3; listed as WEL028, 1 µM) was 0%, the inhibition at 1 µM (PI4K2A (PI4K2 alpha); [1]) was 0% and the “Inhibition at 1 µM (%)” value (PI4K2A (PI4K2 alpha); PI4K2A (PI4K2 alpha), 1 µM, Adapta, ATP 10, listed as WEL028, 1 µM) was 2% and -2%. For the same molecule, the inhibition at 1 µM (PLK1; [1]) was 12%, the “Inhibition at 1 µM (%)” value (PLK1; PLK1, 1 µM, ZLYTE, ATP Km app, listed as WEL028, 1 µM) was 8% and the inhibition at 1 µM (PLK1; read-out: Inhibition at 1 µM (%), PLK1, 1 µM, ZLYTE, ATP Km app) was 15%. For the same molecule, the inhibition at 1 µM (RPS6KA2 (RSK3)) was 19%, the “Inhibition at 1 µM (%)” value (SGK2; 1 µM, ZLYTE, ATP Km app, listed as WEL028, 1 µM) was 4% and -1% and the inhibition at 1 µM (SGK2; [1]) was 2%.
